How the values were obtained:
[1] = system: hMC4R (R165W) knock-in mice; assay: In vivo test of DCPMP on knock-in mouse model carrying human mutant form of MC4R (food intake, weight loss); details: 30 mg per kg i.p. one dose daily for 9 days
Protocol: (§1) Mice were intraperitoneally injected one dose daily with vehicle or DCPMP at 30 mg per kg one hour before light off, for 9 days. Data are the average daily food intake (A, B. C), or the mean of the total body weight loss [total body weight before treatment—total body weight after 9 days treatment] (D), for each experimental group, Data are expressed as Mean±SEM. Numbers of animal per genotype are indicated in brackets.
(§2) Mice were intraperitoneally injected one dose daily with vehicle or N-((2R)-3(2,4-dichlorophenyl)-1-(4-(2-((1-methoxypropan-2-ylamino)methyl)phenyl)piperazin-1-yl)-1-oxopropan-2-yl)propionamide (DCPMP) at 30 mg per kg one hour before light off, for 9 days.
(§3) Animals were individually housed for 4 days prior to starting experiments. […] All animals were weighed prior to compound injection, and doses were normalized to individual animal body weight. Mice were intraperitoneally injected one dose daily with vehicle (1% Tween 80) or DCPMP at 30 mg per kg one hour before lights off (at 5:00 PM), for 9 days. Weight was monitored every 3 days during treatment and after stopping treatment. Food intake was measured during the recovery time for 7 days. Data are the average daily food intake or the mean of total body weight loss [total body weight before treatment—total body weight after 9 days treatment].

[2] = system: non-transgenic littermate mice; assay: In vivo test of DCPMP in non-transgenic littermate mice (food intake); design: species or system mouse; details: at the beginning of DCPMP treatment, 30 mg per kg i.p. daily
Protocol: as §1, §2, §3

SMILES: CCC(=O)N[C@H](Cc1ccc(Cl)cc1Cl)C(=O)N1CCN(c2ccccc2CNC(C)COC)CC1 (stereo partly drawn) [DCPMP, N-((2R)-3(2,4-dichlorophenyl)-1-(4-(2-((1-methoxypropan-2-ylamino)methyl)phenyl)piperazin-1-yl)-1-oxopropan-2-yl)propionamide]
- food intake ([1]; hMC4R (R165W) male mice): reducing food intake
- weight loss, % of total weight ([1]; initially overweight heterozygous hMC4R (R165W) mice): up to 13%
- weight loss, % of total weight ([1]; initially overweight homozygous hMC4R (R165W) mice): ≤ 15%
- food consumption [2]: slightly reduced
